According to ChEMBL document CHEMBL4480423, “Mindapyrroles A-C, Pyoluteorin Analogues from a Shipworm-Associated Bacterium” (J Nat Prod, 2019):
≈ marks a conversion by molar mass, not a printed value.

How the values were obtained:
Staphylococcus aureus [1] = experiment: Antibacterial activity against Staphylococcus aureus ATCC 6538 after 24 hrs by resazurin dye based fluorescence assay; assay type: functional; conditions: ATCC 6538, 24 h
Staphylococcus aureus [2] = experiment: Antibacterial activity against methicillin-resistant Staphylococcus aureus ATCC 43300 after 24 hrs by resazurin dye based fluorescence assay; assay type: functional; conditions: ATCC 43300, 24 h
Bacillus subtilis = experiment: Antibacterial activity against Bacillus subtilis ATCC 6051 after 24 hrs by resazurin dye based fluorescence assay; assay type: functional; conditions: ATCC 6051, 24 h
[3] = test system: Staphylococcus epidermidis; experiment: Antibacterial activity against Staphylococcus epidermidis ATCC 35984 after 24 hrs by resazurin dye based fluorescence assay; assay type: functional; conditions: ATCC 35984, 24 h
Pseudomonas aeruginosa = experiment: Antibacterial activity against Pseudomonas aeruginosa ATCC 15442 after 24 hrs by resazurin dye based fluorescence assay; assay type: functional; conditions: ATCC 15442, 24 h
Enterococcus faecium = experiment: Antibacterial activity against Enterococcus faecium ATCC […] after 24 hrs by resazurin dye based fluorescence assay; assay type: functional
MDCK = experiment: Cytotoxicity against MDCK cells assessed as reduction in cell viability after 72 hrs by MTT assay; assay type: cell-based; conditions: Canis lupus familiaris

Compound: O=C(c1cc(Cl)c(Cl)[nH]1)c1c(O)ccc(Cc2ccc(O)c(C(=O)c3cc(Cl)c(Cl)[nH]3)c2O)c1O
- MIC (Staphylococcus aureus [1]): 32 µg/mL (≈ 57.5 µM)
- MIC (Staphylococcus aureus [2]): > 32 µg/mL
- MIC (Bacillus subtilis): 32 µg/mL (≈ 57.5 µM)
- MIC [3]: 32 µg/mL (≈ 57.5 µM)
- MIC (Pseudomonas aeruginosa): > 32 µg/mL
- MIC (Enterococcus faecium): 32 µg/mL (≈ 57.5 µM)
- IC50 (MDCK): 44 µM

Compound: O=C(c1cc(Cl)c(Cl)[nH]1)c1c(O)ccc(Cc2cc(C(c3csc(-c4ccccc4O)n3)c3ccc(O)c(C(=O)c4cc(Cl)c(Cl)[nH]4)c3O)c(O)c(C(=O)c3cc(Cl)c(Cl)[nH]3)c2O)c1O (stereo not given)
- MIC (Staphylococcus aureus [1]): 4 µg/mL (≈ 3.94 µM)
- MIC (Staphylococcus aureus [2]): 8 µg/mL (≈ 7.88 µM)
- MIC (Bacillus subtilis): 8 µg/mL (≈ 7.88 µM)
- MIC [3]: 2 µg/mL (≈ 1.97 µM)
- MIC (Pseudomonas aeruginosa): > 32 µg/mL
- MIC (Enterococcus faecium): > 32 µg/mL
- IC50 (MDCK): 28 µM

Compound: O=C(c1cc(Cl)c(Cl)[nH]1)c1c(O)ccc(C(c2csc(-c3ccccc3O)n2)c2ccc(O)c(C(=O)c3cc(Cl)c(Cl)[nH]3)c2O)c1O
- MIC (Staphylococcus aureus [1]): 4 µg/mL (≈ 5.47 µM)
- MIC (Staphylococcus aureus [2]): 4 µg/mL (≈ 5.47 µM)
- MIC (Bacillus subtilis): 4 µg/mL (≈ 5.47 µM)
- MIC [3]: 2 µg/mL (≈ 2.73 µM)
- MIC (Pseudomonas aeruginosa): 8 µg/mL (≈ 10.9 µM)
- MIC (Enterococcus faecium): 8 µg/mL (≈ 10.9 µM)
- IC50 (MDCK): 92 µM

Compound: O=C(N[C@H](CO)[C@H](O)c1ccc([N+](=O)[O-])cc1)C(Cl)Cl [CHLORAMPHENICOL]
- MIC (Enterococcus faecium): 8 µg/mL (≈ 24.8 µM)

Compound: CCn1cc(C(=O)O)c(=O)c2ccc(C)nc21 [NALIDIXIC ACID]
- MIC (Pseudomonas aeruginosa): 4 µg/mL (≈ 17.2 µM)

Compound: Cc1onc(-c2ccccc2)c1C(=O)N[C@@H]1C(=O)N2[C@@H]1SC(C)(C)[C@@H]2C(=O)O [OXACILLIN]
- MIC (Staphylococcus aureus [1]): 0.13 µg/mL (≈ 0.324 µM)
- MIC (Staphylococcus aureus [2]): 8 µg/mL (≈ 19.9 µM)
- MIC (Bacillus subtilis): 1 µg/mL (≈ 2.49 µM)
- MIC [3]: 2 µg/mL (≈ 4.98 µM)
- MIC (Enterococcus faecium): > 32 µg/mL

Compound: O=C(c1cc(Cl)c(Cl)[nH]1)c1c(O)cccc1O [PYOLUTEORIN]
- MIC (Staphylococcus aureus [1]): 4 µg/mL (≈ 14.7 µM)
- MIC (Staphylococcus aureus [2]): 8 µg/mL (≈ 29.4 µM)
- MIC (Bacillus subtilis): 8 µg/mL (≈ 29.4 µM)
- MIC [3]: 4 µg/mL (≈ 14.7 µM)
- MIC (Pseudomonas aeruginosa): 16 µg/mL (≈ 58.8 µM)
- MIC (Enterococcus faecium): 8 µg/mL (≈ 29.4 µM)
- IC50 (MDCK): 4.8 µM
